Laboratory results published in US11667652B2, “MCL1 inhibitors” (Gilead Sciences, Inc., priority 2019, dated 2023).
Like-named read-outs stand apart in the source and are kept apart here.

Experiments:
MCL1/Bim = MCL1/Bim (Homo sapiens (Human), UniProt Q07820); assay: MCL1/Bim Binding AlphaLISA Assay; conditions: recombinant human 6xHis-MCL1 (171-327), biotinylated Bim peptide (51-76)
Outline: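 AlphaLISA with 0.0625 nM human 6×His-MCL1 (171-327) and 0.0625 nM biotinylated Bim (51-76) peptide in 20 mM Hepes pH 7.5, 150 mM NaCl, 0.002% Brij 35, 1 mM DTT, 0.01% BSA. Compound preincubated with MCL1 1 h, Bim added 2 h, then acceptor and donor beads 1 h each; % inhibition versus DMSO and no-protein/peptide controls.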

SKBR3 cells = assay: SKBR3 Cell Viability Assay; assay type: cell-based; conditions: CellTiter Glo, read-out: MCL1 CV SKBR3 EC50
Outline: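 SKBR3 cells (6,000/well, McCoy's 5A + 10% FBS) were added onto pre-spotted serial compound dilutions and incubated 72 h at 37° C, 5% CO2. Viability was read by CellTiter-Glo luminescence, with % inhibition normalised to DMSO (negative) and 10 μM puromycin (positive).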

[1] = Homo sapiens, SK-BR-3, 72 hours

Chain of MCL1/Bim (Q07820 171-327): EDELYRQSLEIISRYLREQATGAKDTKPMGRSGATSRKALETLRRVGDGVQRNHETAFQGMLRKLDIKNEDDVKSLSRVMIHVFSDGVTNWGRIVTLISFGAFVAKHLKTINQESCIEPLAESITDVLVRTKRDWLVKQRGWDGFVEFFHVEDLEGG

Structure (SMILES) | IC50 (MCL1/Bim) [nM] | EC50 (SKBR3 cells; 72 hours) [nM] | EC50 (SKBR3 cells; [1]) [nM]
COc1nn(C)cc1C(=O)N[S@@]1(=O)=NC(=O)c2ccc3c(c2)N(C[C@@H]2CC[C@H]2[C@@H](O)C#CC[C@H](C)C1)C[C@@]1(CCCc2cc(Cl)ccc21)CO3 [Example 36] | 0.267 | 1070 | –
COc1nn(C)cc1C(=O)N[S@@]1(=O)=NC(=O)c2ccc3c(c2)N(C[C@@H]2CC[C@H]2[C@@H](OC)C#C[C@H](OC)[C@H](C)C1)C[C@@]1(CCCc2cc(Cl)ccc21)CO3 [Example 72] | 0.309 | 294 | –
COCC(=O)O[C@H]1/C=C/[C@H](OC)[C@@H]2CC[C@H]2CN2C[C@@]3(CCCc4cc(Cl)ccc43)COc3ccc(cc32)C(=O)N=[S@](=O)(NC(=O)c2cn(C)nc2OC)C[C@H]1C [Example 73] | 0.047 | – | 13.8
COc1nn(C)cc1C(=O)N[S@@]1(=O)=NC(=O)c2ccc3c(c2)N(C[C@@H]2CC[C@H]2/C=C/[C@@H](O)[C@H](NC(C)=O)[C@H](C)C1)C[C@@]1(CCCc2cc(Cl)ccc21)CO3 [Example 119] | 0.035 | 244 | –
CCn1cc(C(=O)N[S@@]2(=O)=NC(=O)c3ccc4c(c3)N(C[C@@H]3CC[C@H]3[C@@H](OC)/C=C/C[C@H](C)C2)C[C@]2(CO4)C[C@@H]3C[C@@H]3c3cc(Cl)ccc32)cn1 [Example 164] | 0.105 | – | 88.1
COc1nn(C)cc1C(=O)N[S@@]1(=O)=NC(=O)c2ccc3c(c2)N(C[C@@H]2CC[C@H]2[C@](O)(CC(=O)N(C)C)/C=C/C[C@H](C)C1)C[C@@]1(CCCc2cc(Cl)ccc21)CO3 [Example 96] | 0.075 | 1410 | –
COc1nn(C)cc1C(=O)N[S@@]1(=O)=NC(=O)c2ccc3c(c2)N(C[C@@H]2CC[C@H]2[C@@H](OC)/C=C/[C@@H](OC)[C@H](C)[C@H]1C)C[C@@]1(CCCc2cc(Cl)ccc21)CO3 [Example 68] | 0.2 | 93.8 | –
COc1nn(C)cc1C(=O)N[S@@]1(=O)=NC(=O)c2ccc3c(c2)N(C[C@@H]2CC[C@H]2[C@H]2OC(O)C[C@@H]2CC[C@H](C)C1)C[C@@]1(CCCc2cc(Cl)ccc21)CC3 (mixture of isomers) [Example 150] | 0.035 | – | 114
COc1nn(C)cc1C(=O)N[S@@]1(=O)=NC(=O)c2ccc3c(c2)N(C[C@@H]2CC[C@H]2[C@@H](OC)/C=C/[C@H](Oc2ccncc2)[C@H](C)C1)C[C@@]1(CCCc2cc(Cl)ccc21)CO3 [Example 78] | 0.679 | – | 1060
COc1nn(C)cc1C(=O)N[S@@]1(=O)=NC(=O)c2ccc3c(c2)N(C[C@@H]2CC[C@H]2[C@@H](OC)/C=C/[C@@](C)(O)[C@H](C)C1)C[C@@]1(CCCc2cc(Cl)ccc21)CO3 [Example 120] | 0.034 | 35.2 | –
COCC#Cc1nn(C)cc1C(=O)N[S@@]1(=O)=NC(=O)c2ccc3c(c2)N(C[C@@H]2CC[C@H]2[C@@H](OC)/C=C/C[C@H](C)C1)C[C@@]1(CCCc2cc(Cl)ccc21)CO3 [Example 210] | 0.05 | – | 109
COc1nn(C)cc1C(=O)N[S@@]1(=O)=NC(=O)c2ccc3c(c2F)N(C[C@@H]2CC[C@H]2C(OC)/C=C/[C@H](OC)[C@H](C)C1)C[C@@]1(CCCc2cc(Cl)ccc21)CO3 (stereo partly drawn) [Example 162] | 0.053 | – | 27.7
COc1nn(C)cc1C(=O)N[S@@]1(=O)=NC(=O)c2ccc3c(c2)N(C[C@@H]2CC[C@H]2[C@@H](OC)/C=C/[C@H](OC(C)=O)[C@H](C)[C@H]1C)C[C@@]1(CCCc2cc(Cl)ccc21)CO3 [Example 91] | 0.177 | 88.4 | –
COc1nn(C)cc1C(=O)N[S@@]1(=O)=NC(=O)c2ccc3c(c2)N(C[C@@H]2CC[C@H]2[C@@](O)(CC(=O)N2CCN4CCOCC4C2)/C=C/C[C@H](C)C1)C[C@@]1(CCCc2cc(Cl)ccc21)CO3 (stereo partly drawn) [Example 102] | 0.026 | 16.1 | –
C[C@H]1C/C=C/[C@H](OCCN2CCOCC2)[C@@H]2CC[C@H]2CN2C[C@@]3(CCCc4cc(Cl)ccc43)COc3ccc(cc32)C(=O)N=[S@](=O)(Nc2ncnc3nn(C)cc23)C1 [Example 52] | 0.081 | – | 9.5
CO[C@H]1/C=C/[C@H](OC)CC[S@@](=O)(Nc2ncnc3nn(C)cc23)=NC(=O)c2ccc3c(c2)N(C[C@@H]2CC[C@H]21)C[C@@]1(CCCc2cc(Cl)ccc21)CO3 [Example 71] | 0.894 | 192 | –
COc1nn(C)cc1C(=O)N[S@@]1(=O)=NC(=O)c2ccc3c(c2)N(C[C@@H]2CC[C@H]2[C@@H](OC)CC2CC(CCN(C)C)OC2[C@H](C)C1)C[C@@]1(CCCc2cc(Cl)ccc21)CO3 (stereo partly drawn) [Example 143] | 0.037 | 37.5 | –

Structure (SMILES) | IC50 (MCL1/Bim) [nM] | EC50 (SKBR3 cells; 72 hours) [nM] | EC50 (SKBR3 cells; [1]) [nM]
CO[C@H]1/C=C/C[C@H](C)C[S@@](=O)(NC(=O)c2cc(C(=O)N3CCOCC3)n(C)c2)=NC(=O)c2ccc3c(c2)N(C[C@@H]2CC[C@H]21)C[C@@]1(CCCc2cc(Cl)ccc21)CO3 [Example 207] | 0.08 | – | 87.7
COc1nn(C)cc1C(=O)N[S@@]1(=O)=NC(=O)c2ccc3c(c2)N(C[C@@H]2CC[C@H]2[C@@H](OC)/C=C/[C@H](OCc2ncccn2)[C@H](C)C1)C[C@@]1(CCCc2cc(Cl)ccc21)CO3 [Example 74] | 0.06 | – | 187
CC[C@H]1C/C=C/[C@H](OC)[C@@H]2CC[C@H]2CN2C[C@@]3(CCCc4cc(Cl)ccc43)COc3ccc(cc32)C(=O)N=[S@@](=O)(NC(=O)c2cnn(C)c2)C1 [Example 43] | 1.67 | 3570 | –
COc1nn(C)cc1C(=O)N[S@@]1(=O)=NC(=O)c2ccc3c(c2)N(C[C@@H]2CC[C@H]2[C@@H](OCCCN2CCOCC2)/C=C/C[C@H](C)C1)C[C@@]1(CCCc2cc(Cl)ccc21)CO3 [Example 53] | 0.105 | 21.7 | –
CO[C@H]1/C=C/CCC[S@@](=O)(NC(=O)c2cc3n(c2)CCOC3)=NC(=O)c2ccc3c(c2)N(C[C@@H]2CC[C@H]21)C[C@]1(CO3)C[C@@H]2C[C@@H]2c2cc(Cl)ccc21 [Example 174] | 0.25 | – | 354
COc1nn(C)cc1C(=O)N[S@@]1(=O)=NC(=O)c2ccc3c(c2)N(C[C@@H]2CC[C@H]2[C@@H](OC)/C=C/[C@@H]2OCC[C@@H]1[C@H]2C)C[C@@]1(CCCc2cc(Cl)ccc21)CC3 [Example 149] | 0.378 | – | 287
COc1nn(C)cc1C(=O)N[S@@]1(=O)=NC(=O)c2ccc3c(c2)N(C[C@@H]2CC[C@H]2/C=C/[C@@H]2OCCO[C@@H]2[C@H](C)C1)C[C@@]1(CCCc2cc(Cl)ccc21)CO3 [Example 153] | 0.189 | 1000 | –
C=CC[C@@H]1C[C@@H]2C[C@H](OC)[C@@H]3CC[C@H]3CN3C[C@@]4(CCCc5cc(Cl)ccc54)CCc4ccc(cc43)C(=O)N=[S@](=O)(NC(=O)c3cn(C)nc3OC)C[C@@H](C)[C@H]2O1 [Example 141] | 0.677 | 882 | –
COc1nn(C)cc1C(=O)N[S@]1(=O)=NC(=O)c2ccc3c(c2)N(C[C@@H]2CC[C@H]2C(=O)/C=C/C[C@H](C)C1)C[C@@]1(CCCc2cc(Cl)ccc21)CO3 [Example 47] | 0.167 | 81.9 | –
COc1nn(C)cc1C(=O)N[S@@]1(=O)=NC(=O)c2ccc3c(c2)N(C[C@@H]2CC[C@H]2[C@H]2O[C@H](CCN(C)C)C[C@@H]2CC[C@H](C)C1)C[C@@]1(CCCc2cc(Cl)ccc21)CO3 [Example 152] | 0.027 | – | 51.4
CO[C@H]1/C=C/CCC[S@@](=O)(NC(=O)NC2CC2)=NC(=O)c2ccc3c(c2)N(C[C@@H]2CC[C@H]21)C[C@]1(CO3)C[C@@H]2C[C@@H]2c2cc(Cl)ccc21 [Example 175] | 0.24 | – | 638
COc1nn(C)cc1C(=O)N[S@@]1(=O)=NC(=O)c2ccc3c(c2)N(C[C@@H]2CC[C@H]2[C@H]2OCC[C@@H]2CC[C@H](C)C1)C[C@@]1(CCCc2cc(Cl)ccc21)CO3 [Example 136] | 0.096 | – | 67.2
CC[C@@H]1CC/C=C/[C@H](OC)[C@@H]2CC[C@H]2CN2C[C@@]3(CCCc4cc(Cl)ccc43)COc3ccc(cc32)C(=O)N=S1(=O)NC(=O)COC1CCOCC1 (stereo partly drawn) [Example 40] | 0.101 | 326 | –
C[C@H]1C/C=C/[C@H](O)[C@@H]2CC[C@H]2CN2C[C@@]3(CCCc4cc(Cl)ccc43)COc3ccc(cc32)C(=O)N=[S@](=O)(Nc2nc3nnnn3c3nn(C)cc23)C1 (mixture of isomers) [Example 31] | 0.064 | – | 4390
COc1nn(C)cc1C(=O)N[S@@]1(=O)=NC(=O)c2ccc3c(c2)N(C[C@@H]2CC[C@H]2[C@@](O)(CCN2CCOCC2)/C=C/C[C@H](C)C1)C[C@@]1(CCCc2cc(Cl)ccc21)CO3 [Example 113] | 0.132 | 35.4 | –
COc1nn(C)cc1C(=O)N[S@@]1(=O)=NC(=O)c2ccc3c(c2)N(C[C@@H]2CC[C@H]2[C@H](OC)/C=C/[C@@](C)(O)[C@H](C)C1)C[C@@]1(CCCc2cc(Cl)ccc21)CO3 [Example 121] | 0.047 | 67.9 | –
